# The METLIN SMRT retention time set (Domingo-Almenara et al. 2019)
# Experiment: gradient 5% acetonitrile 3 min, to 50% in 2 min, to 85% in 15 min, held 3 min, 100 µL/min
# Settings: column: Zorbax Extend-C18 2.1 x 50 mm; eluents: water / acetonitrile, 0.1% formic acid
# Procedure, shortened: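 Standards, all pure, were combined into mixtures of ~100 molecules and run at 100 μL/min on a Zorbax Extend-C18 column (2.1 × 50 mm, 1.8 μm) with water and acetonitrile, each containing 0.1% formic acid. A coupled quadrupole time-of-flight mass spectrometer operated in positive and negative ionization mode. Retention time values come from computationally picked adduct peaks, each inspected manually.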
row,RP-LC retention time,Compound
1,629 s,Cc1ccc(NC(=O)N2CCc3cn(C)c4cccc(c34)C2)cc1
2,967 s,O=C(CN1CCCCC1c1nc(-c2cccc(F)c2)no1)Nc1cccc(F)c1 (configuration not stated)
3,816 s,COc1cccc(-c2nc(Cn3c(C)nc4ccccc4c3=O)no2)c1OC
4,595 s,CN(C)C(CNS(=O)(=O)c1ccc(Br)s1)c1cn(C)c2ccccc12 (configuration not stated)
5,868 s,CCn1cnc(S(=O)(=O)N2CCC(C(=O)N3CCN(c4cccc(C(F)(F)F)c4)CC3)CC2)c1
6,880 s,CCc1ccccc1NC(=O)C1CCN(S(C)(=O)=O)c2cc(C)ccc2O1 (configuration not stated)
7,995 s,O=C(NCc1ccc(Br)cc1)C(=O)c1c[nH]c2ccccc12
8,1230 s,Cc1cc(C)cc(-c2nnc(Cc3nc(-c4cccc(Cl)c4)no3)o2)c1
9,632 s,Cc1cccc(N2CCN(Cc3nc4nc(C)cc(N5CCCC5)n4n3)CC2)c1
10,650 s,O=C1CCC(NC(=O)c2ccccc2)C(=O)N1 (configuration not stated)
11,755 s,COc1ccc(-c2nc3cnccn3c2Nc2ccc(C(=O)NC3CCCCC3)cc2)cc1OC
12,1150 s,CCCN1C(=O)CCc2c(C)nc(-c3ccc(C)cc3)nc21
13,1010 s,CCOc1ccc(-c2nc(C3CC(=O)N(c4ccc(OC)cc4)C3)no2)cc1 (configuration not stated)
14,733 s,Cc1ccc(CNC(=O)C2CCN(Cc3cn(C)c4ccc(Cl)cc34)CC2)cc1
15,690 s,CC1(C)CCSC(/C=C/c2ccccc2)=N1
16,753 s,Cc1ccc(CNC(=O)Cn2nc(C(=O)N3CCOCC3)c3ccccc32)cc1
17,752 s,CC1CCN(CCNS(=O)(=O)c2ccccc2-c2nc(-c3ccc(F)cc3)no2)CC1
18,624 s,CC(C)n1c(CCNC(=O)Cc2ccsc2)nc2cccnc21
19,726 s,O=S(=O)(c1ccccc1Cl)N1CCN(c2ccc3nnc(-c4ccco4)n3n2)CC1
20,898 s,O=C(Cn1cccc(-c2nc(-c3ccc(F)cc3)no2)c1=O)NCc1ccccc1Br
21,655 s,CCCN1C(=O)c2cc(C(=O)NCc3ccc(N(C)C)cc3)nn2CC1(C)C(=O)NC1CCCC1 (configuration not stated)
22,1220 s,COC(=O)c1sccc1NC(=O)N1CCCC1c1nc(-c2cccc(Cl)c2)no1 (configuration not stated)

row,RP-LC retention time,Compound
1,866 s,COc1ccc(C(=O)CC(SCCO)c2ccc(Cl)cc2)cc1 (configuration not stated)
2,568 s,O=C(C1CCCN(c2cnc3nccnc3c2)C1)N1CCN(c2ccccn2)CC1 (configuration not stated)
3,850 s,CCn1ccc2sc(C)c(C(=O)NCc3cccc(C)c3)c2c1=O
4,691 s,CC(C)c1cnc2c(c1SCc1cccnc1)c(=O)n(C)c(=O)n2C
5,688 s,CC(C)NC(=O)c1ccc(OCC2CCCN(C(=O)C3CCCO3)C2)cc1 (configuration not stated)
6,763 s,COCCn1cc(CCNC(=O)Nc2ccccc2Br)c2cccnc21
7,893 s,Cc1ccc(CNS(=O)(=O)c2ccc(-c3c(C)noc3C)cc2)o1
8,928 s,Cn1nc(-c2nnc(-c3ccccc3F)o2)c2c1CCN(S(=O)(=O)c1cc(F)ccc1F)C2
9,690 s,COc1ccc(NC(=O)N2CCC(c3noc(-c4cccnc4)n3)C2)cc1 (configuration not stated)
10,622 s,Cc1ccn2cc(-c3ccc(NC(=O)c4ccccc4[N+](=O)[O-])cc3)nc2n1
11,612 s,CCN1CCN(C(=O)Nc2cccc(C(=O)OC)c2)c2cccnc21
12,696 s,CCOc1ncccc1CNC(=O)C1CCC1
13,739 s,O=C(NCc1cscn1)C1CCN(S(=O)(=O)c2ccc(Cl)s2)CC1
14,640 s,CCc1nccn1Cc1nc(-c2ccccc2Cl)no1
15,1070 s,Cc1ccc(OCC(=O)Nc2cnn(C)c(=O)c2N2CCCCC2)cc1
16,572 s,O=C(c1cnccn1)N1CCCC1c1noc(CO)n1 (configuration not stated)
17,662 s,Cn1c(N2CCCC(C(=O)NCc3ccccc3)C2)cc(=O)n(C)c1=O (configuration not stated)
18,993 s,CN(c1nc(-c2ccc([N+](=O)[O-])cc2)nc2ccccc12)C1CCCCC1
19,556 s,COc1cccc(CNC2CCN(c3ccc(C(=O)NC4CC4)cn3)C2)c1O (configuration not stated)
20,514 s,CCn1nccc1C(=O)N1C[C@@H](CO)[C@H](NC(C)=O)C1
21,1240 s,CCOc1cc(-c2nc(C3CC(=O)N(c4ccc(Cl)cc4)C3)no2)cc(OCC)c1OCC (configuration not stated)
22,688 s,Cc1ccc(C)c(NC(=O)Cn2c(N3CCCCC3)nc(C)cc2=O)c1

row,RP-LC retention time,Compound
1,743 s,CCC(=O)N1CCc2cc(C(=O)NCc3cccs3)ccc21
2,702 s,COc1ccc(CCNC(=O)C2CCc3nc(N4CCCCC4)ncc3C2)cc1OC (configuration not stated)
3,1050 s,CCN1C(=O)C2(CCN(S(=O)(=O)Cc3ccc(Cl)cc3)CC2)c2ccccc21
4,656 s,Cn1nc2n(c1=O)CCN(C(=O)CC1=CCCCC1)CC2
5,644 s,CN1C(=O)CCC2(CNC(=O)c3cnccn3)CCC=C12 (configuration not stated)
6,761 s,CC(C)n1cc(S(=O)(=O)N2CCN(c3cccc(Cl)c3)CC2)c2cccnc21
7,832 s,CCn1ccc2c(cc(C(=O)Nc3ccc(Br)cc3C)n2C)c1=O
8,936 s,Cc1oc(C2CCN(S(=O)(=O)c3ccc(F)c(F)c3)CC2)nc1C(=O)N1CCCC1
9,876 s,CCOC(=O)CNC(=O)C1(C)Cn2c(ccc2-c2ccco2)C(=O)N1Cc1ccccc1Cl (configuration not stated)
10,563 s,CCOCC(=O)N1C[C@@H]2CCCN3CCC[C@@H]([C@H]23)[C@H]1CCCC(=O)N1CCOCC1
11,825 s,O=C(C1=CN(c2cccc(F)c2)c2cc(Cl)ccc2S1(=O)=O)N1CCOCC1
12,704 s,COc1ccc([C@H]2Sc3ccccc3N(CCN(C)C)C(=O)[C@H]2OC(C)=O)cc1
13,817 s,CC(C)CC(=O)Nc1ccc(-n2cnc(C(=O)N3CCc4ccccc4C3)c2)nc1
14,648 s,Cc1ccc(-c2n[nH]c3c2CN(C(=O)c2cnn4cccnc24)CC3)cc1
15,920 s,Cc1noc(C2(NC(=O)C3COc4ccccc4O3)CCCCC2)n1 (configuration not stated)
16,828 s,CCCCNC(=O)C1CCCN(C(=O)c2cc(C)cc(C)c2)C1 (configuration not stated)
17,747 s,CCOC(=O)C1=C(C)N(CC(=O)NCC2CCCO2)c2ncnn2C1c1ccccc1 (configuration not stated)
18,659 s,CCc1nc(N)n(CC(=O)Nc2ccc(C)cc2C)c(=O)c1C
19,791 s,CCN1c2ccc(F)cc2C(=O)NC12CCN(C(=O)c1cccc(F)c1)CC2
20,1030 s,CCN(Cc1ccccc1)c1ccc(-c2noc(CN3CCSCC3)n2)cn1
21,879 s,Cc1ccc(NC(=O)Cn2c(=O)n(-c3ccc(F)cc3)c(=O)c3c2cc(C)n3C)c(C)c1

row,Compound,RP-LC retention time
1,Cc1ccc(C(=O)N2CCC3(CC2)c2nccn2-c2ccccc2CN3CC(C)C)cc1F,786 s
2,Cc1ccc(C(=O)N2[C@H]3CC[C@@H]2c2cnc(C)nc2C3)cn1,562 s
